Several values for one entry are separate records, joined by “and”; a condition that tells them apart may be missing. Equal values may be shown once. Read-outs that look alike come from different tables or passages of the source.
Tests used:
TSPO = molecular target: T1, TSPO (Homo sapiens, UniProt P30536); test: In vitro TSPO binding assay, competition with [3H]PK11195 in membrane of human leukocytes
T1 construct: from tissue; host or cells: isolated human leukocytes (membranes)

[1] = In vitro cytotoxicity (MTT assay) on L-929 cells; type: cell-based, mouse; details: mouse, L-929 mouse fibroblast cells, L-929, 24 h, MTT, read-out: Cell viability
Method: (§1) Five concentrations of each compound dissolved in 2% of DMSO in culture media (50 μL) were introduced into cell media (96-well plate). The cell cultures treated with ligands were incubated 24 h, and then the media were removed. The cell crudes were measured at 570 nm and 650 nm using a MTT reagent. All procedures and reagents followed ISO 10993-5 and ISO 10993-12.
(§2) 929, mouse fibroblast cells) were cultured in a 96 well plate and treated with 50 […]
(§3) concentration. After incubation at 37 ° C for 24 hours under CO […]
(§4) fluid, the treated culture medium was removed and the absorbance of each samples were measured at 570 and 650 nm using MTT reagent.
(§5) Blank was administered with only 50uL of cell incubation media. As a control, a 50 […]
(§6) n media was administered.
(§7) MTT assay followed ISO 10993 […]
(§8) values of cell viability for GMA 10, GMA 11, GMA 15, DPA

[2] = tested on: L-929 (mouse fibroblast cells); test: In vitro cytotoxicity (MTT assay) on L-929 cells; type: cell-based; details: Mus musculus, read-out: IC50 values of cell viability
Method: as §1, §2, §3, §4, §5, §6, §7, §8

[3] = L929, L-929, 24 h, MTT, same values given in μM

T1 sequence (P30536 whole entry): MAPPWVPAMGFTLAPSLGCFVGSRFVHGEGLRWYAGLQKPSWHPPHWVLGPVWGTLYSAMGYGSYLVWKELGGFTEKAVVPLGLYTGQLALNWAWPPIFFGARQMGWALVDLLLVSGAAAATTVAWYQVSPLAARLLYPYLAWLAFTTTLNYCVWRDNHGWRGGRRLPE

Structure (SMILES) | Ki (TSPO) [nM] | viability at 24 h, 3.125 μg/mL [1] [%] | viability at 24 h, 6.25 μg/mL [1] [%] | viability at 24 h, 12.5 μg/mL [1] [%] | viability at 24 h, 25 μg/mL [1] [%] | viability at 24 h, 50 μg/mL [1] [%] | IC50 ([2]; L929, L-929, 24 h, MTT) [µg/mL] | IC50 [2, 3] [µM] | IC50 ([2]; L929, 24 h) | fold enhancement in affinity compared to DPA-714 (TSPO; ratio of Ki values) [fold] | fold higher affinity compared to PK11195 (TSPO; ratio of Ki values) [fold]
CCCN(CCC)C(=O)Cc1c(-c2ccc(F)cc2)nn2c(CC)cc(CC)nc12 [GMA 10, 2-(5,7-diethyl-2-(4-fluorophenyl)pyrazolo [1,5-a]pyrimidin-3-yl)-N,N-dipropylacetamide] | 0.18 | 64.5 ± 1.19 | 53.4 ± 2.02 | 39.8 ± 0.74 | 24.6 ± 3.13 | 19.8 ± 1.19 | 15.2 | 37.1 | – | – | –
CCc1cc(CC)n2nc(-c3ccc(F)cc3)c(CC(=O)N(C)CC)c2n1 [GMA 7, 2-(5,7-diethyl-2-(4-fluorophenyl)pyrazolo [1,5-a]pyrimidin-3-yl)-N-ethyl-N-methylacetamide] | 17.1 | – | – | – | – | – | – | – | – | – | –
CCc1cc(CC)n2nc(-c3ccc(F)cc3)c(CC(=O)N(CC)C(C)C)c2n1 [GMA 9, 2-(5,7-Diethyl-2-(4-fluorophenyl)pyrazolo [1,5-a]pyrimidin-3-yl)-N-ethyl-N-isopropyl acetamide] | 13.3 | – | – | – | – | – | – | – | – | – | –
CCC(C)N(C)C(=O)c1cc2ccccc2c(-c2ccccc2Cl)n1 (centres unmarked) [PK11195, reference compound] | – | 57.8 ± 5.22 | 49.08 ± 0.43 | 48.18 ± 0.43 | 38.3 ± 4.8 | 32.8 ± 3.14 | – | – | 22.1 µg/mL and 62.7 µM | – | –
CCN(CC)C(=O)Cc1c(-c2ccc(OCCF)cc2)nn2c(C)cc(C)nc12 [DPA-714, reference compound] | 3.66 | 51 ± 4.08 | 47.3 ± 3.44 | 45.2 ± 1.86 | 32.1 ± 2.54 | 11.2 ± 1.94 | 18.6 | 46.7 | – | – | –
CCc1cc(CC)n2nc(-c3ccc(F)cc3)c(CC(=O)N(CC)c3ccccc3)c2n1 [GMA 15, 2-(5,7-diethyl-2-(4-fluorophenyl)pyrazolo [1,5-a]pyrimidin-3-yl)-N-ethyl-N-phenylacetamide] | 0.06 | 57.9 ± 4.04 | 50.6 ± 2.39 | 26 ± 8.01 | 9.6 ± 1.6 | 6.6 ± 2.15 | 9.73 | 22.6 | – | 61 | 22
CCc1cc(CC)n2nc(-c3ccc(F)cc3)c(CC(=O)N(CC)CC)c2n1 [GMA 8, 2-(5,7-diethyl-2-(4-fluorophenyl)pyrazolo [1,5-a]pyrimidin-3-yl)-N,N-diethylacetamide] | 8.79 | – | – | – | – | – | – | – | – | – | –

The next lines start with results.

Ki (TSPO) [nM] | Structure (SMILES) | viability at 24 h, 3.125 μg/mL [1] [%] | viability at 24 h, 6.25 μg/mL [1] [%] | viability at 24 h, 12.5 μg/mL [1] [%] | viability at 24 h, 25 μg/mL [1] [%] | viability at 24 h, 50 μg/mL [1] [%] | IC50 ([2]; L929, L-929, 24 h, MTT) [µg/mL] | IC50 [2, 3] [µM] | IC50 ([2]; L929, 24 h) | fold enhancement in affinity compared to DPA-714 (TSPO; ratio of Ki values) [fold] | fold higher affinity compared to PK11195 (TSPO; ratio of Ki values) [fold]
0.9 | C#CCN(CC#C)C(=O)Cc1c(-c2ccc(F)cc2)nn2c(CC)cc(CC)nc12 [GMA 13, 2-(5,7-diethyl-2-(4-fluorophenyl)pyrazolo [1,5-a]pyrimidin-3-yl)-N,N-di(prop-2-yn-1-yl) acetamide] | – | – | – | – | – | – | – | – | – | –
25.4 | CCc1cc(CC)n2nc(-c3ccc(F)cc3)c(CC(=O)N(CCOC)CCOC)c2n1 [GMA 12, 2-(5,7-Diethyl-2-(4-fluorophenyl)pyrazolo [1,5-a]pyrimidin-3-yl)-N,N-bis(2-methoxyethyl) acetamide] | – | – | – | – | – | – | – | – | – | –
0.54 | CCc1cc(CC)n2nc(-c3ccc(F)cc3)c(CC(=O)N(CC)Cc3cc(OC)ccc3OC)c2n1 [GMA 17, 2-(5,7-diethyl-2-(4-fluorophenyl)pyrazolo [1,5-a]pyrimidin-3-yl)-N-(2,5-dimethoxybenzyl)-N-ethylacetamide] | – | – | – | – | – | – | – | – | – | –
0.49 | CCc1cc(CC)n2nc(-c3ccc(F)cc3)c(CC(=O)N(CC)Cc3ccccc3OC)c2n1 [GMA 16, 2-(5,7-diethyl-2-(4-fluorophenyl)pyrazolo [1,5-a]pyrimidin-3-yl)-N-ethyl-N-(2-methoxybenzyl)acetamide] | – | – | – | – | – | – | – | – | – | –
0.19 | CCc1cc(CC)n2nc(-c3ccc(F)cc3)c(CC(=O)N(CC)CCOC)c2n1 [GMA 11, 2-(5,7-diethyl-2-(4-fluorophenyl)pyrazolo [1,5-a]pyrimidin-3-yl)-N-ethyl-N-(2-methoxyethyl) acetamide] | 61.7 ± 0.71 | 58.3 ± 3.12 | 39.5 ± 0.63 | 33.5 ± 2.28 | 28.9 ± 1.12 | 36.2 | 87.8 | – | – | –
